From patent US20230241014A1, “MEK-INHIBITORS FOR THE TREATMENT OR PREVENTION OF CORONAVIRUS INFECTIONS AND/OR COVID-19 CYTOKINE STORM” (priority 2020, published 2023)
Read-outs that look alike come from different tables or passages of the source.

Key:
[1] = system: peripheral blood mononuclear cells (PBMC's); assay: T-cell Inflammation Inhibition Assay (Anti-CD3 Stimulation); format: cell-based, human; settings: ATR-002 100, 50, 25 μM, Dexamethasone 100 nM, 24 h
[2] = system: peripheral blood mononuclear cells (PBMC's); assay: T-Cell Inflammation Inhibition Assay (PHA Stimulation); format: cell-based, human; settings: ATR-002 100, 50, 25 μM, Dexamethasone 100 nM, 24 h
SARS-CoV-2 [3] = assay: SARS-CoV-2 Syrian hamster infection model; settings: for reduction of progeny virus in throat swabs (TCID50): 100 mg/kg then 75 mg/kg once daily oral; for reduction of progeny virus in throat swabs (TCID50) / reduction of viral load in throat swabs (PCR): day 3 p.i.; for tolerability, weight loss, adverse effects: compared to vehicle
SARS-CoV-2 (FI) [4] = format: cell-based
SARS-CoV-2 (FI) [5] = format: cell-based; remark: listed apart in the source
pERK1/2 = assay: Wes analysis of ERK phosphorylation in SARS-CoV-2 infected Caco-2 cells; format: cell-based, Homo sapiens; settings: CaCo-2 cells infected SARS-CoV-2 (MOI 0.1); 0.098-100 μM, 24 h
Procedure: For the Virus yield reduction assay a 24-well plate (Greiner Bio-One, Cat. 662-160) with 95% confluent Caco-2 cells was prepared. The wells were washed once with Caco-2 infection medium DMEM (Gibco, Cat. 41965-039) supplemented with 5% FCS (Capricorn, Cat. FBS-12A), 1% Penicillin/Streptomycin, (Sigma Aldrich, Cat. P4333) and 1% Non-essential amino acids (NEAA) (Merck, Cat. K 0293). Cells were infected with SARS-CoV-2 (MOI 0.1) for 1 h in 200 μL Caco-2 infection medium per well. Afterwards the Virus inoculum was removed completely and cells were treated with 1 mL per well with different concentrations of ATR-002 (100 μM, 50 μM, 25 μM, 12.5 μM, 6.25 μM, 3.125 μM, 1.56 μM, 0.78 μM, 0.39 μM, 0.195 μM, 0.098 μM, 0 μM) in Caco-2 infection medium with 1% DMSO for 24 h at 37° C., 5% CO2. […]
Wes™ capillary electrophoresis by ProteinSimple® was used to identify and quantify pERK1/2, ERK1/2 and SARS-CoV-2 Nucleoprotein. Cell lysates were diluted with 0.1×Sample Buffer (ProteinSimple, Abingdon, Oxford, UK) to approximately 50 ng total protein per lane and analyzed using specific antibodies. […] The anti-rabbit secondary antibody (ProteinSimple, Cat. DM-001) and anti-mouse secondary antibody (ProteinSimple, Cat. DM-002) and all other reagents for WES analysis were also purchased from ProteinSimple and were ready to use.

ACE2 = ACE2 expression in Calu-3 cells (immunofluorescence microscopy, WES); format: cell-based, Homo sapiens; settings: 100 μM, 24 h
Procedure: After this, it was tested whether ACE2 expression is reduced in cells after ATR-002 treatment. Calu-3 cells were treated with ATR-002 for 24 hours and the results were analysed via immunofluorescence microscopy and WES technology. Specifically, Calu-3 cells were seeded on glass cover slips in 24-well plates, 1×10^5 cells per well and incubated for 48 h at 37° C., 5% CO2 After washing the cells with medium (IMDM with 10% FBS and 1% P/S), 1 mL of 100 μM ATR-002 in medium or 1 mL 1% DMSO in medium (solvent control) were added to the wells and incubated for 24 h at 37° C., 5% CO2.
Then the wells were washed once with PBS and fixed with 300 μL/well 4% PFA in PBS for 10 minutes at room temperature. […] The slides were let dry at 4° C. in the dark and then analysed using a confocal laser scanning microscope (LSM800, Zeiss).

SARS-CoV-2 [6] = format: cell-based; settings: CaCo-2 cells infected SARS-CoV-2 (MOI 0.1); 0.098-100 μM, 24 h
[7] = treatment start 4 hours p.i., day 4 p.i.
[8] = treatment start 24 hours p.i., day 4 p.i.

O=C(O)c1ccc(F)c(F)c1Nc1ccc(I)cc1Cl [ATR-002, 2-(2-chloro-4-iodophenylamino)-N-3,4-difluoro benzoic acid]
inhibition of cytokine/chemokine stimulation (summary) [1]: significant, dose dependent inhibition | inhibition of cytokine/chemokine stimulation (summary) [2]: significant, dose dependent inhibition | reduction of progeny virus in throat swabs (TCID50) (SARS-CoV-2 [3]; treatment start 4 hours p.i.): 1.1 log 10 | tolerability, weight loss, adverse effects (SARS-CoV-2 [3]; treatment start 4 hours p.i.): well tolerated without significant weight loss | reduction of viral load in throat swabs (PCR) (SARS-CoV-2 [3]; treatment start 4 hours p.i.): 1.1 log 10 | affected lung tissue (lung lesions, estimated percentage) (SARS-CoV-2 [3]; [7]): significantly reduced affected lung tissue | reduction in infectious virus titers (TCID50/g tissue) in the nasal turbinates (SARS-CoV-2 [3]; [7]): 1.3 log 10 | reduction of viral load in the nasal turbinates (PCR) (SARS-CoV-2 [3]; [7]): 1.1 log 10 | reduction of progeny virus in throat swabs (TCID50) (SARS-CoV-2 [3]; treatment start 24 hours p.i.): 1.3 log 10 | tolerability, weight loss, adverse effects (SARS-CoV-2 [3]; treatment start 24 hours p.i.): well tolerated without significant weight loss | reduction of viral load in throat swabs (PCR) (SARS-CoV-2 [3]; treatment start 24 hours p.i.): 1.2 log 10 | affected lung tissue (lung lesions, estimated percentage) (SARS-CoV-2 [3]; [8]): significantly reduced affected lung tissue | infectious virus titers in the nasal turbinates (SARS-CoV-2 [3]; [8]): not the treatment started 24 hours p.i., significantly reduced infectious virus titers | production of progeny viral particles (SARS-CoV-2 (FI) [4]; A549-ACE2/TMPRSS2, MOI 0.001, 100 μM): reduced the production of progeny viral particles | production of progeny viral particles (SARS-CoV-2 (FI) [4]; A549-ACE2/TMPRSS2, MOI 0.01, 100 μM): did not affect the production of progeny viral particles | production of progeny viral particles (SARS-CoV-2 (FI) [4]; Calu-3, MOI 0.001, 100 μM): reduced the production of progeny viral particles | duration of the effect on progeny viral particles (SARS-CoV-2 (FI) [5]; Calu-3, MOI 0.01, 10-150 μM): maintained over the total infection time of 72 hours | production of progeny viral particles (SARS-CoV-2 (FI) [5]; Calu-3, MOI 0.01, 10-150 μM, 24, 48, 72 h): concentration dependent decrease | cell damage of infected cells (light microscopy) (SARS-CoV-2 (FI) [5]; Calu-3 infected with SARS-CoV-2): did not show the characteristic cell damage | inhibition of ERK (phosphorylation) (pERK1/2): seen at concentrations of 50 and 100 μM | ACE2 on Calu-3 cells (ACE2): reduction of ACE2 | inhibition of SARS-CoV-2 (virus titer) (SARS-CoV-2 [6]): seen at concentrations of 50 and 100 μM | inhibition of nucleocapsid protein (viral marker) (SARS-CoV-2 [6]): seen at concentrations of 50 and 100 μM
